From patent publication US10513623B2, “Aqueous ink, ink cartridge and image recording method” (CANON KABUSHIKI KAISHA, priority 2017, dated 2019)

Columns and labels:
[1] = Log distribution coefficient of solvent A; assay type: physicochemical
[2] = Aqueous solubility of solvent A at 20° C.; assay type: physicochemical; settings: for Aqueous solubility: 20° C.

Row | Structure (SMILES) | Log distribution coefficient [1] | Aqueous solubility [2] [% by mass] | aqueous solubility of the solvent A ([2]; solvent A of ink 1, rounded value) [%]
1 | CC(O)COc1ccccc1 (centres unmarked) [1-Phenoxy-2-propanol] | 1.51 | 1.1 | 
2 | CC(O)Cc1ccccc1 (centres unmarked) [1-Phenyl-2-propanol] | 1.71 | 0.58 | 
3 | OCCOc1ccccc1 [2-Phenoxyethanol] | 1.16 | 2.67 | 2.7
4 | OCCCc1ccccc1 [3-Phenyl-1-propanol] | 1.88 | 0.568 | 
5 | OCCCCc1ccccc1 [4-Phenyl-1-butanol] | 2.4 | 0.1 | 
6 | OCc1ccccc1 [Benzyl alcohol] | 1.03 | 4.29 | 
7 | OCCc1ccccc1 [Phenethyl alcohol] |  | 2.2 | 
